Data reported in ChEMBL document CHEMBL3885861, “Open TG-GATES”.

Species on record: Rattus norvegicus
Assay: Open TG-GATES - Regimen: Daily Repeat
Type: toxicity, organism-based, Sprague-Dawley
Parameters: regimen Daily Repeat, gender Male, age 6 weeks
Settings: in vivo, po, 75 mg/kg, route gavage, dose level High; for APTT / Bas / Eos / Fbg / Hb / Ht / Lym / MCH / MCHC / MCV / Mono / Neu / PT / Plat / RBC / Ret / WBC: tissue Blood; for KIDNEY_L / KIDNEY_R / KIDNEY_TOTAL: tissue Kidney; for LIVER: tissue Liver; for A/G / ALP / ALT / AST / BUN / CRE / Ca / Cl / DBIL / GLC / IP / K / LDH / Na / PL / RALB / TBIL / TC / TG / TP / gamma-GTP: tissue Plasma

NC1=NC(=O)C(c2ccccc2)O1 (configuration not stated) [PEMOLINE] was tested, and the TERMINAL_BW (72 h, time 3 day) was 210.2 g, the APTT (72 h, time 3 day) was 16.1 s and the Bas (72 h, time 3 day) was 0%. The Eos (72 h, time 3 day) was 1%, the Fbg (72 h, time 3 day) was 378.8 mg/dL and the Hb (72 h, time 3 day) was 13.2 g/dL. For the same compound, the Ht (72 h, time 3 day) was 38.4%, the Lym (72 h, time 3 day) was 72.6% and the MCH (72 h, time 3 day) was 21.4 pg. For the same compound, the MCHC (72 h, time 3 day) was 34.3%, the MCV (72 h, time 3 day) was 62.4 fL and the Mono (72 h, time 3 day) was 4%. The Neu (72 h, time 3 day) was 21.4%, the PT (72 h, time 3 day) was 13.1 s and the Plat (72 h, time 3 day) was 116.2 x10_4/uL. It also gave an RBC (72 h, time 3 day) of 614.2 x10_4/ul, a Ret (72 h, time 3 day) of 5.7% and a WBC (72 h, time 3 day) of 96.9 x10_2/uL. It also gave a KIDNEY_L (72 h, time 3 day) of 1 g, a KIDNEY_R (72 h, time 3 day) of 1 g and a KIDNEY_TOTAL (72 h, time 3 day) of 1.9 g. The LIVER (72 h, time 3 day) was 9.5 g, the A/G (72 h, time 3 day) was 0.9 and the ALP (72 h, time 3 day) was 1189.4 IU/L. For the same compound, the ALT (72 h, time 3 day) was 40.6 IU/L, the AST (72 h, time 3 day) was 91.6 IU/L and the BUN (72 h, time 3 day) was 14.4 mg/dL. The CRE (72 h, time 3 day) was 0.2 mg/dL, the Ca (72 h, time 3 day) was 10.5 mg/dL and the Cl (72 h, time 3 day) was 106 meq/L. It also gave a DBIL (72 h, time 3 day) of 0.014 mg/dL, a GLC (72 h, time 3 day) of 162.2 mg/dL and an IP (72 h, time 3 day) of 7.4 mg/dL. It also gave a K (72 h, time 3 day) of 4 meq/L, an LDH (72 h, time 3 day) of 46.6 IU/L and a Na (72 h, time 3 day) of 142.6 meq/L. It also gave a PL (72 h, time 3 day) of 118.6 mg/dL, an RALB (72 h, time 3 day) of 2.6 g/dL and a TBIL (72 h, time 3 day) of 0.03 mg/dL. The TC (72 h, time 3 day) was 70.8 mg/dL, the TG (72 h, time 3 day) was 40.2 mg/dL and the TP (72 h, time 3 day) was 5.4 g/dL. For the same compound, the gamma-GTP (72 h, time 3 day) was 1 IU/L, the TERMINAL_BW ([…], time 7 day) was 237.7 g and the TERMINAL_BW ([…], time 14 day) was 305 g. It also gave a TERMINAL_BW ([…], time 28 day) of 376.6 g, an APTT ([…], time 7 day) of 16.7 s and a Bas ([…], time 7 day) of 0%. For the same compound, the Eos ([…], time 7 day) was 1%, the Fbg ([…], time 7 day) was 294.8 mg/dL and the Hb ([…], time 7 day) was 13.9 g/dL. For the same compound, the Ht ([…], time 7 day) was 40.7%, the Lym ([…], time 7 day) was 78% and the MCH ([…], time 7 day) was 21.9 pg. For the same compound, the MCHC ([…], time 7 day) was 34.2%, the MCV ([…], time 7 day) was 63.8 fL and the Mono ([…], time 7 day) was 3%. It also gave a Neu ([…], time 7 day) of 17.8%, a PT ([…], time 7 day) of 12.9 s and a Plat ([…], time 7 day) of 131.8 x10_4/uL. It also gave an RBC ([…], time 7 day) of 638.8 x10_4/ul, a Ret ([…], time 7 day) of 6.6% and a WBC ([…], time 7 day) of 88.3 x10_2/uL. It also gave an APTT ([…], time 14 day) of 16.9 s, a Bas ([…], time 14 day) of 0% and an Eos ([…], time 14 day) of 1.2%. The Fbg ([…], time 14 day) was 259.4 mg/dL, the Hb ([…], time 14 day) was 14.6 g/dL and the Ht ([…], time 14 day) was 41.8%. The Lym ([…], time 14 day) was 72.4%, the MCH ([…], time 14 day) was 21.1 pg and the MCHC ([…], time 14 day) was 34.8%. The MCV ([…], time 14 day) was 60.5 fL, the Mono ([…], time 14 day) was 2.8% and the Neu ([…], time 14 day) was 23.2%. The PT ([…], time 14 day) was 13 s, the Plat ([…], time 14 day) was 105.3 x10_4/uL and the RBC ([…], time 14 day) was 691.2 x10_4/ul. The Ret ([…], time 14 day) was 4.7%, the WBC ([…], time 14 day) was 89.3 x10_2/uL and the APTT ([…], time 28 day) was 18.6 s. The Bas ([…], time 28 day) was 0.4%, the Eos ([…], time 28 day) was 1% and the Fbg ([…], time 28 day) was 255.2 mg/dL. The Hb ([…], time 28 day) was 15.7 g/dL, the Ht ([…], time 28 day) was 44.2% and the Lym ([…], time 28 day) was 79.4%. The MCH ([…], time 28 day) was 20.8 pg, the MCHC ([…], time 28 day) was 35.6% and the MCV ([…], time 28 day) was 58.5 fL. For the same compound, the Mono ([…], time 28 day) was 2.8%, the Neu ([…], time 28 day) was 16.2% and the PT ([…], time 28 day) was 12.6 s. The Plat ([…], time 28 day) was 90.5 x10_4/uL, the RBC ([…], time 28 day) was 755.2 x10_4/ul and the Ret ([…], time 28 day) was 2.8%. The WBC ([…], time 28 day) was 90.3 x10_2/uL, the KIDNEY_L ([…], time 7 day) was 1.1 g and the KIDNEY_R ([…], time 7 day) was 1.1 g. The KIDNEY_TOTAL ([…], time 7 day) was 2.1 g, the KIDNEY_L ([…], time 14 day) was 1.3 g and the KIDNEY_R ([…], time 14 day) was 1.3 g. The KIDNEY_TOTAL ([…], time 14 day) was 2.6 g, the KIDNEY_L ([…], time 28 day) was 1.5 g and the KIDNEY_R ([…], time 28 day) was 1.4 g. For the same compound, the KIDNEY_TOTAL ([…], time 28 day) was 2.9 g, the LIVER ([…], time 7 day) was 10.9 g and the LIVER ([…], time 14 day) was 13.8 g. The LIVER ([…], time 28 day) was 16.2 g, the A/G ([…], time 7 day) was 0.9 and the ALP ([…], time 7 day) was 1601.8 IU/L. The ALT ([…], time 7 day) was 44 IU/L, the AST ([…], time 7 day) was 83.2 IU/L and the BUN ([…], time 7 day) was 15 mg/dL. It also gave a CRE ([…], time 7 day) of 0.2 mg/dL, a Ca ([…], time 7 day) of 10.6 mg/dL and a Cl ([…], time 7 day) of 105.8 meq/L. The DBIL ([…], time 7 day) was 0.015 mg/dL, the GLC ([…], time 7 day) was 174.8 mg/dL and the IP ([…], time 7 day) was 7.7 mg/dL. The K ([…], time 7 day) was 4.4 meq/L, the LDH ([…], time 7 day) was 65 IU/L and the Na ([…], time 7 day) was 142.5 meq/L. The PL ([…], time 7 day) was 128.2 mg/dL, the RALB ([…], time 7 day) was 2.6 g/dL and the TBIL ([…], time 7 day) was 0.025 mg/dL. For the same compound, the TC ([…], time 7 day) was 65.8 mg/dL, the TG ([…], time 7 day) was 65.5 mg/dL and the TP ([…], time 7 day) was 5.6 g/dL. The gamma-GTP ([…], time 7 day) was 1 IU/L, the A/G ([…], time 14 day) was 0.8 and the ALP ([…], time 14 day) was 1468 IU/L. It also gave an ALT ([…], time 14 day) of 39 IU/L, an AST ([…], time 14 day) of 79.8 IU/L and a BUN ([…], time 14 day) of 14.8 mg/dL. For the same compound, the CRE ([…], time 14 day) was 0.2 mg/dL, the Ca ([…], time 14 day) was 11.1 mg/dL and the Cl ([…], time 14 day) was 106 meq/L. For the same compound, the DBIL ([…], time 14 day) was 0.012 mg/dL, the GLC ([…], time 14 day) was 176.2 mg/dL and the IP ([…], time 14 day) was 8.1 mg/dL. It also gave a K ([…], time 14 day) of 4 meq/L, an LDH ([…], time 14 day) of 79.2 IU/L and a Na ([…], time 14 day) of 143.4 meq/L. It also gave a PL ([…], time 14 day) of 135 mg/dL, an RALB ([…], time 14 day) of 2.7 g/dL and a TBIL ([…], time 14 day) of 0.022 mg/dL. It also gave a TC ([…], time 14 day) of 69.2 mg/dL, a TG ([…], time 14 day) of 86.8 mg/dL and a TP ([…], time 14 day) of 5.9 g/dL. For the same compound, the gamma-GTP ([…], time 14 day) was 1 IU/L, the A/G ([…], time 28 day) was 0.8 and the ALP ([…], time 28 day) was 1096 IU/L. For the same compound, the ALT ([…], time 28 day) was 44.6 IU/L, the AST ([…], time 28 day) was 77.6 IU/L and the BUN ([…], time 28 day) was 16.4 mg/dL. The CRE ([…], time 28 day) was 0.2 mg/dL, the Ca ([…], time 28 day) was 11.3 mg/dL and the Cl ([…], time 28 day) was 105 meq/L. The DBIL ([…], time 28 day) was 0.024 mg/dL, the GLC ([…], time 28 day) was 179.2 mg/dL and the IP ([…], time 28 day) was 7.6 mg/dL. The K ([…], time 28 day) was 4 meq/L, the LDH ([…], time 28 day) was 81.4 IU/L and the Na ([…], time 28 day) was 143.6 meq/L. It also gave a PL ([…], time 28 day) of 126.8 mg/dL, an RALB ([…], time 28 day) of 2.8 g/dL and a TBIL ([…], time 28 day) of 0.034 mg/dL. For the same compound, the TC ([…], time 28 day) was 59 mg/dL, the TG ([…], time 28 day) was 132 mg/dL and the TP ([…], time 28 day) was 6.2 g/dL. For the same compound, the gamma-GTP ([…], time 28 day) was 1 IU/L.
